Data on nine compounds can be found in PMC7961587, “Novel Cell Permeable Polymers of N-Substituted L-2,3-Diaminopropionic Acid (DAPEGs) and Cellular Consequences of Their Interactions with Nucleic Acids” (International Journal of Molecular Sciences, 2021).

Series [1] has as its system MDA-MB-231 or HB-2 cell lines. Description: Cytotoxicity assay: MTT. Format: cell-based, human. Particulars: for Cytotoxicity at the concentration used in the cell experiments, in words: 10 µM, MTT, Figure S2, HB-2 and MDA-MB-231; for Cytotoxicity (percentage of dead cells): MTT assay, MDA-MB-231 or HB-2 cell lines, greatest concentration of 50 µg/mL, 24 h. The procedure:
Cell viability against cell-penetrating compounds was detected by the MTT assay. The HB2 and MDA-MB-231 cells were seeded into 96-well plates at a density of 5 × 10^3/well and 7 × 10^3/well, respectively, and incubated in complete medium (100 µL/well) for 48 h. […] Cells incubated in media without any test compounds were used as control. After incubation, medium containing test compounds was removed, and 225 µL fresh medium with 25 µL 3-(4,5-dimethylthiazol-2-yl)-2,5-diphenyltetrazolium bromide (MTT) was added (0.5 mg/mL per well). After incubation at 37 °C for 4 h, supernatants were removed, and the formazan crystals were dissolved overnight with dimethyl sulfoxide (DMSO; 150 µL/well). Results were analyzed using a microplate reader (SPECTROstar Nano, BMG LABTECH, Ortenberg, Germany) at 570 nm and 690 nm.
Background: Tetrazolium assays rely on reduction of a dye to a coloured formazan, in cell work by metabolically active cells.

A further series deals with HB2 and MDA-MB-231 cells. Description: Cell permeability and localization by fluorescence microscopy. Format: cell-based, human. Particulars: for Cell membrane crossing and localization, in words: 10 µM, fluorescence microscopy, HB2 or MDA-MB-231 cells; for Cell Permeablility (Target): cellular localization: fluorescence microscope Olympus IX51, 10 µM fluorescently labeled compound, DAPI nucleus staining. The text has this:
Preliminary cell permeability experiments facilitated the identification of three groups of compounds. […] The first group includes compound 4 and its derivatives (4a and 4b) and the family of compound 5 (5a and 5b). Compounds 4 and 5 are similar in structure and are composed of six residues of diaminopropionic acid (Dap) decorated with side chains of different lengths, terminating with the same highly positive guanidine moiety. […] Both compounds display unique cellular localization. […] We believe that such effective nuclear localisation of the first group of tested compounds is due to the effective mimicking of the nuclear localisation sequence (NLS). Such sequence consists of several positively charged lysines or arginines present in the protein structure. Additionally, side chain length of the polymer molecules seems to be a crucial factor that is optimal for compounds belonging to first group of polymers.
HB2 and MDA-MB-231 cells were seeded on 24-well plates at a density 1.5 × 10^4/well and 4 × 10^4/well, respectively, and incubated in 0.5 mL complete medium for 48 h. Subsequently, cells were washed with phosphate-buffered saline (PBS), and fresh medium with a fluorescently labeled peptide was added to each well at a concentration of 10 µM. For nucleus staining a DAPI solution (ThermoFisher Scientific, Waltham, MA, USA, […] R37606) in PBS was employed in conditions recommended by the supplier. After the incubation (2 h or 24 h), cells were washed thoroughly with PBS, and then a phenol red-free culture medium (FluoroBrite, DMEM) was added. Subsequently, the cells were examined using an Olympus IX51 fluorescence microscope (Olympus, Tokyo, Japan) using appropriate filters: blue for DAPI, green for FITC, and red TAMRA. Next, the images were merged and colocalization of the dyes’ emission were analyzed.

Another series concerns the target ssDNA (76 nt) fragment. Kind of series: Microscale thermophoresis (MST), ssDNA binding. Also on record: species or system Homo sapiens. Particulars: Monolith NT.115, 0.437 µM 5/6-FAM-labeled compound, EDBS buffer pH 8, 32 °C 1 h, scanned at 25 °C, at least two independent experiments, read-out: Binding constant, single-stranded DNA (MST). The procedure:
(§1) Figure 7 Microscale thermophoresis (MST) analysis of dsDNA binding by 5/6-FAM-labeled compounds. The MST analysis. FAM-labeled compounds 1a (A), 4a (B), 5a (C), and ssDNA binding by 5/6-FAM-labeled compounds 1a (E), 4a (F), 5a (G) was performed using the Monolith NT.115 instrument (NanoTemper). Binding was measured between increasing concentrations (6.1 nM–200 µM) of dsDNA (76 bp fragment) and 0.437 µM of the indicated compounds labeled with 5/6-FAM. Control experiments were performed with DNA and 5/6-FAM dye (D,H).
(§2) Figure 9 Microscale thermophoresis (MST) analysis of dsDNA binding by 5/6-FAM-labeled compounds. The MST analysis of dsDNA binding by 5/6-FAM-labeled compounds 13a (A) and 14a (B), and ssDNA binding by 5/6-FAM-labeled compounds 13a (D) and 14a (E) was performed using the Monolith NT.115 instrument (NanoTemper). Binding was measured between increasing concentration (6.1 nM–200 µM) of dsDNA (76 bp fragment) and 0.437 µM of the indicated compounds labeled with 5/6-FAM. A control experiment was performed with DNA and 5/6-FAM dye (C,F).
(§3) Microscale thermophoresis was performed using the Monolith NT.115 instrument (NanoTemper Technologies GmbH, Munich, Germany). Binding between dsDNA (76 bp) or ssDNA (76 nt) fragments and test compounds labeled with 5/6-FAM was measured. […] All data were analyzed using MO Affinity Analysis software (NanoTemper, Munich, Germany).
In general terms: MST reads how a fluorescent partner responds to local heating, with and without ligand.

Series [2] addresses dsDNA (76 bp fragment) containing the sequence of beta-actin. Kind of series: Microscale thermophoresis (MST), dsDNA binding. Details: species or system Homo sapiens. The settings on record: Monolith NT.115, 0.437 µM 5/6-FAM-labeled compound, dsDNA 6.1 nM–200 µM, EDBS buffer pH 8, 32 °C 1 h, scanned at 25 °C, at least two independent experiments, read-out: Binding constant, double-stranded DNA (MST). The procedure:
as §1, §2, §3

Series [3] concerns 76 bp dsDNA fragment containing the sequence of β-actin. Kind of series: Surface plasmon resonance (SPR), dsDNA binding. Also on record: species or system Homo sapiens. The settings on record: 50 and 100 µM compound over immobilized 76 bp dsDNA, HBS-EP buffer. The procedure: Standard surface plasmon resonance (SPR) analyses using a Biacore T200 (GE Healthcare, Warsaw, Poland) were performed essentially as described in the manufacturers’ manual. DNA binding by all tested compounds was studied using a 5′-biotinylated 76 nt ssDNA or 76 bp dsDNA fragment containing the sequence of β-actin (Homo sapiens), immobilized on a streptavidin matrix-coated sensor chip SA (GE Healthcare, Warsaw, Poland). All oligonucleotides were commercially synthesized (oligo.pl, Poland; Figures S3 and S4). The dsDNA was immobilized on the sensor surface to yield a final value of ~50 RU for dsDNA or ~100 RU. Experiments were performed at 25 °C, and the running buffer was HBS-EP (150 mM NaCl, 10 mM HEPES (pH = 7.4), 3 mM EDTA, and 0.05% Surfactant P20). In binding experiments, the buffer flow rate was set to 15 µL/min, and in kinetic experiments, the buffer flow rate was 30 µL/min. The data were analyzed using Biacore T200 evaluation software (GE Healthcare, Warsaw, Poland). The results are presented as sensorgrams obtained after subtracting the background response signal from a reference flow cell and from a control experiment with buffer injection.
Figure 2S. Cytotoxicity of compounds 1a–9a as assessed by the MTT assay. Two different cell lines were used: A) HB‐2 and B) MDA‐MB‐231.
Figure 3S. Surface plasmon resonance SPR analysis of double‐stranded DNA (dsDNA) binding by various peptidomimetics. The SPR analysis of dsDNA binding was performed using: A) 50 μM and B) 100 μM of the indicated compounds, flowed over the SA sensor chip surface with immobilized 76 bp biotinylated DNA fragment containing the sequence of beta‐ actin (Homo sapiens). Injections were performed in HBS‐EP buffer. HBS‐EP was also used as […]
Figure 4S. SPR analysis of DNA binding by compound 5a. […] (C) Kinetic constants calculated from at least three experiments using Biacore T200 Evaluation Software […]

Square brackets hold non-standard residues; d marks the D form. Peptide text beside a SMILES is read from it. * marks the point of attachment. 5FAM = O=C1OC2(c3ccc(O)cc3Oc3cc(O)ccc32)c2ccc(C(=O)*)cc21; Acetyl(2-(HOCH2CH2OCH2CH2O)) = O=C(COCCOCCO)*; Dap = NC[C@H](N)C(=O)O; AEEA = NCCOCCOCC(=O)O

As for 5′,6-FAM -O2Oc-(D-arg)6-O2Oc-NH2 [2a], the “Cytotoxicity at the concentration used in the cell experiments, in words” value in series [1] was “slightly cytotoxic”. Besides, in the series with HB2 and MDA-MB-231 cells, the “Cell membrane crossing and localization, in words” value was “partially visible in the cytoplasm in the form of granules”; the “Cell Permeablility (Target): cellular localization” value (“Cell Permeablility (Target)” below) is “cytoplasm”.

As for 5′,6-FAM -O2Oc-(Har)6-O2Oc-NH2 [3a], the “Cytotoxicity at the concentration used in the cell experiments, in words” value in series [1] was “slightly cytotoxic”. In the series on HB2 and MDA-MB-231 cells, the “Cell membrane crossing and localization, in words” value is recorded as “partially visible in the cytoplasm in the form of granules”; the “Cell Permeablility (Target)” value is listed as “cytoplasm”.

As to “5′,6-FAM [compound 10, reference compound]”, the Kd was 399 ± 497 µM on ssDNA (76 nt) fragment and 639 ± 703 µM in series [2].

Take `NCCOCCOCC(=O)NC[C@H](NC(=O)COCCOCCNC(=O)c1ccc2c(c1)C(=O)OC21c2ccc(O)cc2Oc2cc(O)ccc21)C(=O)N[C@@H](CNC(=O)COCCOCCN)C(=O)N[C@@H](CNC(=O)COCCOCCN)C(=O)N[C@@H](CNC(=O)COCCOCCN)C(=O)N[C@@H](CNC(=O)COCCOCCN)C(=O)N[C@@H](CNC(=O)COCCOCCN)C(=O)NCCOCCOCC(N)=O` [8a, 5′,6-FAM-O2Oc-[Dap(O2)]6-O2Oc-NH2] ({5FAM-AEEA}-[Dap](AEEA)[Dap](AEEA)[Dap](AEEA)[Dap](AEEA)[Dap](AEEA)[Dap](AEEA)[AEEA]-NH2): the “Cell membrane crossing and localization, in words” value in the series on HB2 and MDA-MB-231 cells was “did not cross the cell membrane”.

Regarding `NC(=O)COCCOCCNC(=O)[C@H](CNC(=O)COCCOCCO)NC(=O)[C@H](CNC(=O)COCCOCCO)NC(=O)[C@H](CNC(=O)COCCOCCO)NC(=O)[C@H](CNC(=O)COCCOCCO)NC(=O)[C@H](CNC(=O)COCCOCCO)NC(=O)[C@H](CNC(=O)COCCOCCO)NC(=O)COCCOCCNC(=O)c1ccc2c(c1)C(=O)OC21c2ccc(O)cc2Oc2cc(O)ccc21` [9a, 5′,6-FAM-O2Oc-[Dap(HO2)]6-O2Oc-NH2] ({5FAM-AEEA}-[Dap](Acetyl(2-(HOCH2CH2OCH2CH2O)))[Dap](Acetyl(2-(HOCH2CH2OCH2CH2O)))[Dap](Acetyl(2-(HOCH2CH2OCH2CH2O)))[Dap](Acetyl(2-(HOCH2CH2OCH2CH2O)))[Dap](Acetyl(2-(HOCH2CH2OCH2CH2O)))[Dap](Acetyl(2-(HOCH2CH2OCH2CH2O)))[AEEA]-NH2), the “Cell membrane crossing and localization, in words” value in the series with HB2 and MDA-MB-231 cells is given as “did not cross the cell membrane”.

As to `N=C(N)NCCC[C@H](NC(=O)COCCOCCN)C(=O)N[C@@H](CCCNC(=N)N)C(=O)N[C@@H](CCCNC(=N)N)C(=O)N[C@@H](CCCNC(=N)N)C(=O)N[C@@H](CCCNC(=N)N)C(=O)N[C@@H](CCCNC(=N)N)C(=O)NCCOCCOCC(N)=O` [compound 1, O2Oc(Arg)6-O2Oc-NH2], in series [1], the “Cytotoxicity (percentage of dead cells)” value is on record as 10%. The “DNA binding class set arbitrarily from the SPR experiment (Figure S3)” value (“DNA binding class set arbitrarily” for short) in series [3] is given as “Moderate”.

As for `N=C(N)NCCC[C@@H](NC(=O)COCCOCCN)C(=O)N[C@H](CCCNC(=N)N)C(=O)N[C@H](CCCNC(=N)N)C(=O)N[C@H](CCCNC(=N)N)C(=O)N[C@H](CCCNC(=N)N)C(=O)N[C@H](CCCNC(=N)N)C(=O)NCCOCCOCC(N)=O` [compound 2, O2Oc(D-arg)6-O2Oc-NH2], the “Cytotoxicity (percentage of dead cells)” value in series [1] came to 15%. Also, in series [3], the “DNA binding class set arbitrarily” value is recorded as “Moderate”.

For `N=C(N)NCCCC[C@H](NC(=O)COCCOCCN)C(=O)N[C@@H](CCCCNC(=N)N)C(=O)N[C@@H](CCCCNC(=N)N)C(=O)N[C@@H](CCCCNC(=N)N)C(=O)N[C@@H](CCCCNC(=N)N)C(=O)N[C@@H](CCCCNC(=N)N)C(=O)NCCOCCOCC(N)=O` [compound 3, O2Oc-(Har)6-O2Oc-NH2], the “Cytotoxicity (percentage of dead cells)” value in series [1] is on record as 10%. In addition, the “DNA binding class set arbitrarily” value in series [3] is given as “Weak”.

Regarding `N=C(N)NCCOCCOCC(=O)NC[C@H](NC(=O)COCCOCCNC(=O)c1ccc2c(c1)C(=O)OC21c2ccc(O)cc2Oc2cc(O)ccc21)C(=O)N[C@@H](CNC(=O)COCCOCCNC(=N)N)C(=O)N[C@@H](CNC(=O)COCCOCCNC(=N)N)C(=O)N[C@@H](CNC(=O)COCCOCCNC(=N)N)C(=O)N[C@@H](CNC(=O)COCCOCCNC(=N)N)C(=O)N[C@@H](CNC(=O)COCCOCCNC(=N)N)C(=O)N[C@@H](CNC(=O)COCCOCCNC(=N)N)C(=O)N[C@@H](CNC(=O)COCCOCCNC(=N)N)C(=O)NCCOCCOCC(N)=O` [compound 14a, 5′,6-FAM-O2Oc-[Dap(GO2)]8-O2Oc-NH2], in the series on HB2 and MDA-MB-231 cells, the “Cell membrane crossing and localization, in words” value is “efficiently penetrate the membrane and localized in the nucleus”; the “Cell Permeablility (Target)” value is given as “nucleus”.
